# Measured values taken from paper PMC5329948, “Caspase vinyl sulfone small molecule inhibitors prevent axonal degeneration in human neurons and reverse cognitive impairment in Caspase-6-overexpressing mice” (Molecular Neurodegeneration, 2017).
# What was measured:
# [1] = biological target: T1, recombinant active site-titrated Casp6 (Homo sapiens, UniProt P55212); assay: IC50 on in-house recombinant active site-titrated Casp6 (Ac-VEID-AFC fluorogenic assay); assay type: biochemical; settings: 20 nM Casp6, 5 min preincubation at room temperature, 10 μM Ac-VEID-AFC; read-out: IC50 against recombinant active site-titrated Casp6
# T1 construct: human Casp6 large subunit (amino acids 24-179, flanked by start (ATG) and stop (TAA) codons); small subunit (amino acids 194-293, preceded by a start codon); initiator Met (added start codon) (N); His; made in house; host or cells: E. coli BL21(DE3)pLysS
# T1 sequence (P55212 24-179): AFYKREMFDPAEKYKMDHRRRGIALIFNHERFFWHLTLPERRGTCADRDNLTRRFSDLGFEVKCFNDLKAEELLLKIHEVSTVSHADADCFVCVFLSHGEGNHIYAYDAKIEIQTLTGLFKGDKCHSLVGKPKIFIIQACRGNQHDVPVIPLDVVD
# T1 sequence (P55212 194-293): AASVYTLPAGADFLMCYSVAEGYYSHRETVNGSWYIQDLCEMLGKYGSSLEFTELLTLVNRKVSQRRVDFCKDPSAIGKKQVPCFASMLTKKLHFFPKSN
# Method: Recombinant Casp6 Expression and purification: Casp6 was expressed from the pET23b(+)-Casp6-His plasmid in E. coli BL21(DE3)pLysS strain (Promega, Fitchburg, WI, USA) at 37 °C in 2xYT medium (16 g/l tryptone, 10 g/l yeast extract, 5 g/l NaCl) supplemented with 0.1 mg/ml ampicillin and 0.034 mg/ml chloramphenicol under vigorous shaking according to [46]. Casp6 expression was induced with 50 μM isopropyl β-D-1-thiogalactopyranoside (IPTG) when cell cultures reached OD595 nm of 0.6 and cells cultured at 22 °C for 16 h under vigorous shaking. […] The lysate was clarified by centrifugation (30,000 x g for 30 min at 4 °C) and loaded on Ni Sepharose Fast Flow 6 medium (GE Healthcare Life Sciences, Baie D’Urfe, QC, CA) pre-equilibrated with buffer A, washed with buffer B (50 mM Tris pH 8.5, 500 mM NaCl, 5% glycerol, 20 mM imidazole), and bound proteins eluted with a 50-300 mM linear imidazole gradient in buffer A. Fractions were assessed for recombinant Casp6 purity by SDS-PAGE and Coomassie blue staining. […] Protein concentration was measured using Quick Start Bradford 1x Dye Reagent (Bio-Rad Laboratories, Hercules, CA, USA). Active site titration assay: The concentration of Casp6 active sites was determined by active site titration assay using Z-VAD-fmk (N-benzyloxycarbonyl-Val-Ala-Asp-(O-methyl)-fluoromethylketone, MP Biomedicals, Santa Ana, CA, USA) inhibitor [46]. […]
# [2] = biological target: T2, recombinant Caspase-8 (Homo sapiens, UniProt Q14790); assay: Caspase Inhibitor Drug Screening Kit (BioVision), IETD-AFC substrate; assay type: biochemical; settings: not active site titrated
# T2 construct: purchased BioVision
# T2 sequence (Q14790 217-479): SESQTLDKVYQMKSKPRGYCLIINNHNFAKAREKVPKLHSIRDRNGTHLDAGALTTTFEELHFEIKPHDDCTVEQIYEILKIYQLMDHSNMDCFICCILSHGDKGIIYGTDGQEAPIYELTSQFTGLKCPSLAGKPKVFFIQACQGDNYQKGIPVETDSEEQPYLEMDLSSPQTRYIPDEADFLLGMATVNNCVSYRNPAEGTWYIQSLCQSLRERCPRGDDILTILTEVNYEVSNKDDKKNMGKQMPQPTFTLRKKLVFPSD
# Method: The half-maximal inhibitory concentrations (IC50) for NWL inhibitors (Patent publication # WO/2009/140765, WO/2010/133000, and WO/2012/140500) was determined by incubating 0 to 20 μM NWL-117 and NWL-154 with 20 nM of active site-titrated Casp6 in SB at room temperature for 5 minutes. Then, 10 μM Ac-VEID-AFC was added and fluorescence measured for 20 min at 37 °C as described above. New World Laboratories performed the IC50 determination for NWL inhibitors dissolved in dimethyl sulfoxide (DMSO) against recombinant Casp1-10 using the Caspase Inhibitor Drug Screening Kits (BioVision, San Francisco, CA) following the manufacturer’s instructions and the preferred substrates for the caspases (Caspase-1: WAD-AFC, Caspase-2: VDVAD-AFC, Caspase-3: DEVD-AFC, Caspase-4: LEVD-AFC, Caspase-5: WEHD-AFC, Casp6:VEID-AFC, Caspase-7: DEVD-AFC, Caspase-8: IETD-AFC, Caspase-9: LEHD-AFC, Caspase-10: AEVD-AFC). In transfected HCT116 cells, 0 to 100 μM NWL inhibitors were added in the culture media and left on the cells for 2 h. Cells were washed once with 1 mL ice-cold PBS, incubated on ice for 5 min with 200 μL cell lysis buffer (CLB) (50 mM HEPES, 0.1% CHAPS, 0.1 mM EDTA), and gently scraped off. Protein concentrations were determined by Bradford assay (BioRad, Mississauga, ON, CA) by measuring the absorbance at 595 nm using the BioTek Synergy H4 plate reader. […]
Structure (SMILES),IC50 [1] [nM],IC50 [2] [nM]
CCC(C)[C@H](NC(=O)[C@H](CCC(=O)O)NC(=O)[C@@H](NC(=O)OCc1ccccc1)C(C)C)C(=O)N[C@H](/C=C(\Cl)S(C)(=O)=O)CC(=O)O (stereo partly shown) [NWL-154],100,530
CCC(C)[C@H](NC(=O)[C@H](CCC(=O)O)NC(=O)[C@@H](NC(=O)OCc1ccccc1)C(C)C)C(=O)N[C@H](/C=C/S(C)(=O)=O)CC(=O)O (stereo partly shown) [NWL-117],192,660
